“And” between values parts separate entries of the source, which are not always exact repeats. Equal entries are not always repeated.
Key:
[1] = Physical examination and monitoring for adverse events in the clinical trial; type: in vivo, human; details: to date
[2] = system: PSMA-expressing PC3-PIP cells; assay: Cellular uptake and internalization in PSMA-expressing PC3-PIP cells; type: cell-based
Text: The PSMA binding scaffold of PSMA binds irreversibly to the extracellular enzymatic domain of PSMA leading to rapid internalization by PSMA-expressing cancer cells. Tumor cell uptake of CTT1403 is ˜84% after just 2½ hours (FIG. 1), compared to less than 40% tumor cell uptake of ^177Lu-PSMA-617 (structure shown below), in PSMA-expressing PC3-PIP cells.
Given that 99% of cell bound CTT1403 is internalized, compared to just 15% of ^177Lu-PSMA-617, targeting by CTT1403 is expected to confer a significant therapeutic advantage. This greater uptake will allow treatment of smaller tumors for a longer time. Both irreversible binding and cellular internalization increases exposure of target tissue to the therapeutic agent. Greater accumulation in the target tissue will permit a lower efficacious dose and/or dosing frequency, thus reducing a patient's total clinical exposure to the radionuclide and improving the therapeutic index.

[3] = Pharmacokinetics of CTT1403 in mCRPC subjects (radioactivity of blood samples); type: in vivo, human
Protocol: In order to investigate the pharmacokinetics of CTT1403, doses were administered by IV to fifteen subjects. The subjects each had histologically confirmed prostate adenocarcinoma that was metastatic and castration resistant (mCRPA). Subjects with de novo small cell carcinoma of the prostate were excluded. The subjects further had at least three metastatic foci avid for PSMA-specific PET agent CTT1057 or 68Ga-PSMA-11 uptake. PSMA avidity was defined as SUVmax>mediastinal blood pool. The subjects had received docetaxel, were ineligible for docetaxel, or had refused docetaxel. They all further had progression by the PCWG3 criteria during or after treatment with abiraterone, enzalutamide, and/or apalutamide, and had serum testosterone<50 ng/dL. Subjects without a history of bilateral orchiectomy were required to remain on a luteinizing hormone-releasing hormone (LHRH) analog during the course of the protocol therapy.
Pharmacokinetics assessment follows the movement of drugs throughout the body, including measurement of the drug's half-life in circulation. The longer a drug remains available in circulation before being cleared from the body, the greater the opportunity for it to meet its target and achieve the desired therapeutic effect. To measure pharmacokinetics, remaining CTT1403 was estimated by measuring the radioactivity of blood sample withdrawn at particular time points. Each patient received a dose ranging from 0.75 GBq to 7.5 GBq.
This is already more than a 5.3-fold greater distribution phase and 3.5-fold greater elimination phase than the PSMA-617 agent (without the albumin binder) and will further increase as the dose increases. […] CTT anticipates that these early observations will translate to compelling efficacy as the trial progresses. Table 1 reports the blood distribution and elimination half-lives for 13 of 15 patients enrolled in the study. […] Longer clearance half-lives will advantageously yield enhanced drug delivery as CTT1403 has more time to find and bind to expressed PSMA. This effect also allows more time for the therapeutic agent to reach smaller tumors or poorly-vascularized tumors. Longer systemic circulation of CTT1403 afforded by the albumin motif believed to lead to lower dosing of the kidneys, a dose-limiting factor, allowing higher dosages to be safely administered.

[4] = 1.5 GBq IV (1st patient at this dose)
[5] = 2.0 GBq IV (1st patient at this dose)
[6] = 3.0 GBq IV (1st patient at this dose)
[7] = 3.0 GBq IV (2nd patient at this dose)
[8] = 3.0 GBq IV (3rd patient at this dose)
[9] = 4.5 GBq IV (1st patient at this dose)
[10] = 4.5 GBq IV (2nd patient at this dose)
[11] = 4.5 GBq IV (3rd patient at this dose)
[12] = 6.0 GBq IV (1st patient at this dose)
[13] = 6.0 GBq IV (2nd patient at this dose)
[14] = 6.0 GBq IV (3rd patient at this dose)
[15] = 7.5 GBq IV (1st patient at this dose)
[16] = 7.5 GBq IV (2nd patient at this dose)
[17] = half-life of CTT1403 vs reported 177Lu-PSMA-617
[18] = mean of 13 patients, 1.5-7.5 GBq IV, preliminary

## O=C(O)CC[C@H](NP(=O)(O)OCCC[C@H](NC(=O)CC[C@H](NC(=O)CCCCCNC(=O)CCC(NC(=O)CCOCCOCCOCCOCCNC(=O)CCC(=O)N1Cc2ccccc2-c2c(nnn2CCCNC(=O)CN2CCN3CCN4CCN(CC2)CC(=O)[O][177Lu]([O]C(=O)C3)[O]C(=O)C4)-c2ccccc21)C(=O)NC(CCCCNC(=O)CCCc1ccc(I)cc1)C(=O)O)C(=O)O)C(=O)O)C(=O)O (stereo partly drawn) [CTT1403]
[1]
  serious adverse events after receipt of CTT1403: no serious adverse events
[2]; PSMA-expressing PC3-PIP cells
  cell bound agent that is internalized: 99%
[2]; after 2½ hours, PSMA-expressing PC3-PIP cells (FIG. 1)
  Tumor cell uptake: ~84%
[3]; [4]
  Distribution Half-life: 0.75 h
  Elimination Half-life 2: 28.88 h
[3]; [5]
  Distribution Half-life: 1.04 h
  Elimination Half-life 2: 23.90 h
[3]; [6]
  Distribution Half-life: 0.51 h
  Elimination Half-life 2: 27.73 h
[3]; [7]
  Distribution Half-life: 0.89 h
  Elimination Half-life 2: 31.51 h
[3]; [8]
  Distribution Half-life: 0.70 h
  Elimination Half-life 2: 36.48 h
[3]; [9]
  Distribution Half-life: 0.85 h
  Elimination Half-life 2: 33.01 h
[3]; [10]
  Distribution Half-life: 0.85 h
  Elimination Half-life 2: 34.66 h
[3]; [11]
  Distribution Half-life: 0.85 h
  Elimination Half-life 2: 43.32 h
[3]; [12]
  Distribution Half-life: 0.78 h
  Elimination Half-life 2: 46.21 h
[3]; [13]
  Distribution Half-life: 0.57 h
  Elimination Half-life 2: 30.14 h
[3]; [14]
  Distribution Half-life: 1.06 h
  Elimination Half-life 2: 33.01 h
[3]; [15]
  Distribution Half-life: 1.20 h
  Elimination Half-life 2: 57.76 h
[3]; [16]
  Distribution Half-life: 1.00 h
  Elimination Half-life 2: 57.76 h
[3]; after 2 weeks, subjects who received the 7.5 GBq dose
  CTT1403 detection in blood: still detected
[3]; [17]
  fold greater distribution phase than the PSMA-617 agent: > 5.3 fold
  fold greater elimination phase than the PSMA-617 agent: > 3.5 fold
[3]; [18]
  Distribution half-life (mean): 0.85 ± 0.2 h
  Elimination half-life (mean): 37.3 ± 10.9 h and 37.26 h
[3]; range over patients, 1.5-7.5 GBq IV
  Distribution phase half-life, range: 0.51 to 1.2 h
[3]; vs agent lacking the albumin binding moiety
  circulation time compared with 177Lu-PSMA-617: at least two to ten-fold greater
